Broadly, the IC50 is the concentration needed to halve the response being measured.

Assay [1] addresses T1, DDR1 kinase (Homo sapiens, UniProt Q08345). Description: Evaluation of DDR1 kinase inhibition in DDR1-expressing U2OS cells (type I collagen stimulation, PathHunter detection). The class given is cell-based. The arrangement: host or cells: U2OS. The note with it: type I collagen 50 µg/mL stimulation, duplicate, read-out: DDR-1 IC50. As to the method:
The solution was further diluted in an E-MEM medium (Fujifilm Wako Pure Chemicals, 051-07615) containing 10% fetal bovine serum (FBS, Gibco, 10270106) to 60000, 6000, 600, 60, 6, and 0.6 nM to prepare test substance solutions. 2. […] On the following day, after the plate was left at room temperature for 1 hour, a detection solution was added to the wells at […] according to the handling instructions for the PathHunter® Detection Kit (DiscoverX, 93-0001), and then incubated at room temperature for 2 hours. After the incubation, a luminescence intensity was measured by Envision (Perkin-Elmer). Tests were performed in duplicate. 3.
Target sequence in this assay (Q08345 19-913): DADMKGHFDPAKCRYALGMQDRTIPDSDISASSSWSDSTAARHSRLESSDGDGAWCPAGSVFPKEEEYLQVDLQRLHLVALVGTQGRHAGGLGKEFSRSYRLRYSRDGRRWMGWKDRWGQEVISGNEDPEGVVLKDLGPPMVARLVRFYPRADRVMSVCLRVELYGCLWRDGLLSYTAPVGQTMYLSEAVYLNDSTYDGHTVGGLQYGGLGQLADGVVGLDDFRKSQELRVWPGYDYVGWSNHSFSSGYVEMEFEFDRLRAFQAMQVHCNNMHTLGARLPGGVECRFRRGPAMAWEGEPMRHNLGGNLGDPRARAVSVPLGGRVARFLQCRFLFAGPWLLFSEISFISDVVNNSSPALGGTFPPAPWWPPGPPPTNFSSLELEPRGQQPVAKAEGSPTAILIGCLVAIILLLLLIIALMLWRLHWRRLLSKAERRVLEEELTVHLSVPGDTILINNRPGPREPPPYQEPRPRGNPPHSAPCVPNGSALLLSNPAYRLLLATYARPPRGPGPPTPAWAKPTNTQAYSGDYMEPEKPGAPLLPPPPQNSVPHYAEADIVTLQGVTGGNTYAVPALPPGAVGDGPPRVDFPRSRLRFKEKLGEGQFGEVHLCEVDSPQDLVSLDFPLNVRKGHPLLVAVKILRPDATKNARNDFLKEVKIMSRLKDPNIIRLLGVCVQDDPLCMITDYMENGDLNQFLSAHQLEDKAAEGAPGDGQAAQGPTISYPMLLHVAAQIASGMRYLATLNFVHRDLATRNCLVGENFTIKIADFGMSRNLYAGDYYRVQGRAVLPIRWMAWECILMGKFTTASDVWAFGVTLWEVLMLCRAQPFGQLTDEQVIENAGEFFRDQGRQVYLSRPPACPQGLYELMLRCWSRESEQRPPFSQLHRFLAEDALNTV

In assay [2] the target is T1, DDR1 kinase. Description: Evaluation of DDR1 kinase inhibition (LANCE Ultra TR-FRET kinase assay). The class given is biochemical. Also on record: purchased Carna Biosciences 08-113. The note with it: DDR1 protein 0.5 nM, LANCE Ultra ULight-poly GAT substrate, 2 hours at room temperature, duplicate; read-out: DDR-1 IC50. For orientation: TR-FRET usually uses a lanthanide donor and a delayed reading to cut background.
Target sequence in this assay (Q08345 19-876 isoform Q08345-2 limits assumed): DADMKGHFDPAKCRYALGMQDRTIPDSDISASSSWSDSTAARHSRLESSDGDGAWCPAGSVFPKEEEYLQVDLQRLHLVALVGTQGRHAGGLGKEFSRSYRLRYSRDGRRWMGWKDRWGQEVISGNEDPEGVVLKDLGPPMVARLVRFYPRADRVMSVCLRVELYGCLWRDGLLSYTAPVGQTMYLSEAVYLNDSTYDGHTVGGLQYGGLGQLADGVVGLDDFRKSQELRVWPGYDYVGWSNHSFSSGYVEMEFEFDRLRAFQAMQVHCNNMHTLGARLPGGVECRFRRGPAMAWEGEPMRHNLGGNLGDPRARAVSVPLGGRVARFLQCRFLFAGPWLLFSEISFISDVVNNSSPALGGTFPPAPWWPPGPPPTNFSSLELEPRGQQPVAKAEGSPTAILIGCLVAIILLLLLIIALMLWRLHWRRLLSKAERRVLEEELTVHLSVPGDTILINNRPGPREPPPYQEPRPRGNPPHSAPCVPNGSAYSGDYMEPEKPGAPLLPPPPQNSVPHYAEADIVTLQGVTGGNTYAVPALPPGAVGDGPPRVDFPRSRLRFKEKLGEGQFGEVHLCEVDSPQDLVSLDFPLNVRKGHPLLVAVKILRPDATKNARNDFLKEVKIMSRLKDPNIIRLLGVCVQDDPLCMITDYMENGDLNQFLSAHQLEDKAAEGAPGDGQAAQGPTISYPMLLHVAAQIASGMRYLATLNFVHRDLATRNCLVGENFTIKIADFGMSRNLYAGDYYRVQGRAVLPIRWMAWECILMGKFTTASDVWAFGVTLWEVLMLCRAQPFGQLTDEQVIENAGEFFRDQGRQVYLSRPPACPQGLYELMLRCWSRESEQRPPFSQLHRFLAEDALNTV

Where a name gives a salt, the structure may show the parent alone.

Turning to `Nc1nc(C(F)(F)F)c(C(=O)N2CC(c3nn(CC(=O)N4CCC[C@H]4C(F)(F)F)c4cc(F)cc(F)c34)C2)s1` [Compound E-139, 2-(3-{1-[2-amino-4-(trifluoromethyl)-1,3-thiazole-5-carbonyl]azetidin-3-yl}-4,6-difluoro-1H-indazol-1-yl)-1-[(2S)-2-(trifluoromethyl)pyrrolidin-1-yl]ethan-1-one], the half-inhibitory concentration (IC50) on DDR1 kinase [1] was 850 nM; at DDR1 kinase [2] it was 18 nM.
With `N#CC1(NC(=O)Cn2nc(C3CN(C(=O)c4cc(N)ncc4F)C3)c3ccccc32)CC1` [Compound E-244, 2-{3-{1-(2-amino-5-fluoropyridine-4-carbonyl)azetidin-3-yl]-1H-indazol-1-yl}-N-(1-cyanocyclopropyl)acetamide], the half-inhibitory concentration (IC50) at DDR1 kinase [1] was 420 nM; at DDR1 kinase [2] it was 41 nM.
`Nc1cc(C(=O)N2CC(c3nn(C(F)C(=O)N4CCC[C@H]4C(F)(F)F)c4cc(F)cc(F)c34)C2)ccn1` (stereo partly drawn) [Compound E-107, 2-{3-[1-(2-aminopyridine-4-carbonyl)azetidin-3-yl]-4,6-difluoro-1H-indazol-1-yl}-2-fluoro-1-[(2S)-2-(trifluoromethyl)pyrrolidin-1-yl]ethan-1-one]: the figures for the half-maximal inhibitory concentration (IC50) on DDR1 kinase [1] and at DDR1 kinase [2] were 670 nM and 91 nM, respectively.
The corresponding values for `Nc1cc(C(=O)N2CC(c3nn(CC(=O)N4CCO[C@@H](C(F)(F)F)C4)c4cncc(F)c34)C2)ccn1` [Compound E-100] are 110 nM and 34 nM.
Regarding `Nc1nccc(C(=O)N2CC(c3nn(CC(=O)N4CCC[C@H]4C(F)(F)F)c4cc(F)cc(F)c34)C2)n1` [Compound E-129, 2-{3-[1-(2-aminopyrimidine-4-carbonyl)azetidin-3-yl}-4,6-difluoro-1H-indazol-1-yl}-1-[(2S)-2-(trifluoromethyl)pyrrolidin-1-yl]ethan-1-one], the 50% inhibitory concentration (IC50) turned out to be 70 nM on DDR1 kinase [1] and 6.3 nM on DDR1 kinase [2].
The corresponding values for `Nc1cc(C(=O)N2CC(c3nn(Cc4cn(Cc5ccccc5)nn4)c4cccc(F)c34)C2)ccn1` [Compound E-35, 4-(3-{1-[(1-benzyl-1H-1,2,3-triazol-4-yl)methyl]-4-fluoro-1H-indazol-3-yl}azetidine-1-carbonyl)pyridin-2-amine hydrochloride] are 2000 nM and 31 nM.
For the compound `CN(CC(F)(F)F)C(=O)Cn1nc(C2CN(C(=O)c3cc(N)ncc3F)C2)c2ccccc21` [Compound E-240, 2-{3-[1-(2-amino-5-fluoropyridine-4-carbonyl)azetidin-3-yl}-1H-indazol-1-yl}-N-methyl-N-(2,2,2-trifluoroethyl)acetamide], the values for the half-inhibitory concentration (IC50) at DDR1 kinase [1] and at DDR1 kinase [2] were 140 nM and 5 nM, respectively.
`Cc1c(C(=O)N2CC(c3nn(CC(=O)N4CCO[C@@H](C(F)(F)F)C4)c4cncc(F)c34)C2)ccnc1N` [Compound E-180, 2-{3-[1-(2-amino-3-methylpyridine-4-carbonyl)azetidin-3-yl]-4-fluoro-1H-pyrazolo{3,4-c)pyridin-1-yl}-1-[(2R)-2-(trifluoromethyl)morpholin-4-yl}ethan-1-one]: the IC50 at DDR1 kinase [1] turned out to be 3000 nM; at DDR1 kinase [2] it was 22 nM.
On to `O=C(c1ccnc(NC2CCC(F)(F)CC2)c1)N1CC(c2nn(CC(=O)N3CCC[C@H]3C(F)(F)F)c3cc(F)cc(F)c23)C1` [Compound E-75, 2-[3-(1-{2-[(4,4-difluorocyclohexyl)aminolpyridine-4-carbonyl}azetidin-3-yl)-4,6-difluoro-1H-indazol-1-yl]-1-[(2S)-2-(trifluoromethyl)pyrrolidin-1-yl]ethan-1-one hydrochloride], for which the IC50 is 33 nM at DDR1 kinase [1] and 15 nM at DDR1 kinase [2].
For the compound `Nc1cc(C(=O)N2CC(c3nn(CC(=O)NCC(F)(F)F)c4ccc(F)c(Br)c34)C2)ccn1` [Compound E-70, 2-{3-[1-(2-aminopyridine-4-carbonyl)azetidin-3-yl]-4-bromo-5-fluoro-1H-indazol-1-yl}-N-(2,2,2-trifluoroethyl)acetamide hydrochloride], the results for the IC50 at DDR1 kinase [1] and at DDR1 kinase [2] were 120 nM and 1.7 nM, respectively.
As for `CC(C)(C)NC(=O)Cn1nc(C2CN(C(=O)c3ccnc(N)c3)C2)c2c(F)cc(F)cc21` [Compound E-189, 2-(3-[1-(2-aminopyridine-4-carbonyl)azetidin-3-yl]-4,6-difluoro-1H-indazol-1-yl}-N-tert-butylacetamide], the IC50 on DDR1 kinase [1] is 460 nM; on DDR1 kinase [2], 11 nM.
As to `Nc1cc(C(=O)N2CCC(c3nn(CC(=O)N4CCC[C@H]4C(F)(F)F)c4cccc(F)c34)CC2)ccn1` [Compound E-81, 2-{3-[1-(2-aminopyridine-4-carbonyl)piperidin-4-yl]-4-fluoro-1H-indazol-1-yl}-1-[(28)-2-(trifluoromethyl)pyrrolidin-1-yl]ethan-1-one], the values for the IC50 at DDR1 kinase [1] and on DDR1 kinase [2] were 61 nM and 1.5 nM, respectively.
For the compound `CN(CC(F)(F)F)C(=O)Cn1nc(C2CN(C(=O)c3nc(N)ncc3F)C2)c2cc(Cl)ccc21` [Compound E-21, 2-{3-[1-(2-amino-5-fluoropyrimidine-4-carbonyl)azetidin-3-yl]-5-chloro-1H-indazol-1-yl}-N-methyl-N-(2,2,2-trifluoroethyl)acetamide], the half-inhibitory concentration (IC50) at DDR1 kinase [1] worked out at 140 nM; at DDR1 kinase [2] it was 1.5 nM.
Consider `Nc1cc(C(=O)N2CC(c3nn(CC(=O)N4CCC[C@H]4C(F)(F)F)c4ccccc34)C2)ccn1` [Compound E-40, 2-{3-[1-(2-aminopyridine-4-carbonyl)azetidin-3-yl]-1H-indazol-1-yl}-1-[(2S)-2-(trifluoromethyl)pyrrolidin-1-yl]ethan-1-one], for which the IC50 at DDR1 kinase [1] was determined as 69 nM; on DDR1 kinase [2], 5.7 nM.
The corresponding values for `Cc1ccc2c(n1)c(C1CN(C(=O)c3ccnc(NC4CC4)c3)C1)nn2CC(=O)N1CCC[C@H]1C(F)(F)F` [Compound E-130, 2-(3-(1-[2-(cyclopropylamino)pyridine-4-carbonyl]azetidin-3-yl}-5-methyl-1H-pyrazolo[4,3-b}pyridin-1-yl)-1-[(2S)-2-(trifluoromethyl)pyrrolidin-1-yl]ethan-1-one] are 82 nM and 5.7 nM.
Consider `Cc1c(C(=O)N2CC(c3nn(CC(=O)N4CCO[C@@H](C(F)(F)F)C4)c4cc(F)cc(F)c34)C2)ccnc1N` [Compound E-51, 2-{3-[1-(2-amino-3-methylpyridine-4-carbonyl)azetidin-3-yl]-4,6-difluoro-1H-indazol-1-yl}-1-[(2R)-2-(trifluoromethyl)morpholin-4-yl]ethan-1-one hydrochloride], for which the IC50 was 400 nM at DDR1 kinase [1] and 12 nM on DDR1 kinase [2].
For the compound `Nc1cc(C(=O)N2CC(c3cn(CC(=O)N4CCC[C@H]4C(F)(F)F)c4ccccc34)C2)ccn1` [Compound E-11, 2-{3-[1-(2-aminopyridine-4-carbonyl)azetidin-3-yl]-1H-indol-1-yl}-1-[(2S)-2-(trifluoromethyl)pyrrolidin-1-yl]ethan-1-one], the values for the half-inhibitory concentration (IC50) on DDR1 kinase [1] and at DDR1 kinase [2] were 110 nM and 6.1 nM, respectively.
Regarding `CN(CC(F)(F)F)C(=O)Cn1nc(C2CN(C(=O)c3ccnc(N)c3)C2)c2ccccc21` [Compound E-45, 2-{3-[1-(2-aminopyridine-4-carbonyl)azetidin-3-yl]-1H-indazol-1-yl}-N-methyl-N-(2,2,2-trifluoroethyl)acetamide], the 50% inhibitory concentration (IC50) was 140 nM at DDR1 kinase [1] and 4.4 nM at DDR1 kinase [2].
With `Nc1cc(C(=O)N2CC(c3nn(CC(=O)NC4CC(F)(F)C4)c4ccccc34)C2)ccn1` [Compound E-214, 2-{3-[1-(2-aminopyridine-4-carbonyl)azetidin-3-yl]-1H-indazol-1-yl}-N-(3,3-difluorocyclobutyl)acetamide], the figures for the IC50 on DDR1 kinase [1] and on DDR1 kinase [2] were 380 nM and 10 nM, respectively.
`Nc1cc(C(=O)N2CC(c3nn(Cc4cccc(C(F)(F)F)c4)c4cccc(F)c34)C2)ccn1` [Compound E-113, 4-[3-(4-fluoro-1-{[3-(trifluoromethyl)phenyllmethyl}-1H-indazol-3-yl)azetidine-1-carbonyl]pyridin-2-amine hydrochloride]: the IC50 was 470 nM on DDR1 kinase [1] and 25 nM on DDR1 kinase [2].
Consider `CN(CC(F)(F)F)C(=O)Cn1nc(C2CN(C(=O)c3ccnc(N)c3)C2)c2c(F)cccc21` [Compound E-87, 2-{3-[1-(2-aminopyridine-4-carbonyl)azetidin-3-yl]-4-fluoro-1H-indazol-1-yl}-N-methyl-N-(2,2,2-trifluoroethyl)acetamide], for which the concentration for half-maximal inhibition (IC50) was 93 nM on DDR1 kinase [1] and 22 nM on DDR1 kinase [2].
On to `C[C@H]1CN(C(=O)Cn2nc(C3CN(C(=O)c4ccnc(N)c4)C3)c3c(F)cc(F)cc32)CCO1` [Compound E-79, 2-{3-[1-(2-aminopyridine-4-carbonyl)azetidin-3-yl]-4,6-difluoro-1H-indazol-1-yl}-1-[(2S)-2-methylmorpholin-4-yl]ethan-1-one hydrochloride], for which the figures for the IC50 at DDR1 kinase [1] and on DDR1 kinase [2] were 3400 nM and 35 nM, respectively.
The corresponding values for `CN(CC(F)(F)F)C(=O)Cn1nc(C2CN(C(=O)c3ccnc(N)n3)C2)c2cc(Cl)ccc21` [Compound E-4, 2-{3-[1-(2-aminopyrimidine-4-carbonyl)azetidin-3-yl]-5-chloro-1H-indazol-1-yl}-N-methyl-N-(2,2,2-trifluoroethyl)acetamide] are 55 nM and 2 nM.
Consider `CN(CC(F)(F)F)C(=O)Cn1nc(C2CN(C(=O)c3cc(N)ncc3F)C2)c2c(F)cccc21` [Compound E-59, 2-{3-[1-(2-amino-5-fluoropyridine-4-carbonyl)azetidin-3-yl]-4-fluoro-1H-indazol-1-yl}-N-methyl-N-(2,2,2-trifluoroethyl)acetamide], for which the values for the half-inhibitory concentration (IC50) on DDR1 kinase [1] and on DDR1 kinase [2] were 170 nM and 5.4 nM, respectively.
